Experiments:
[1] = biological target: T1, PDE10 from rat striatum (Rattus norvegicus, UniProt Q9QYJ6); assay: Inhibition of PDE10 from rat striatum (Method A); format: biochemical; details: read-out: Km of substrate
T1 construct: from tissue; host or cells: rat striatum (male Wistar)
T1 sequence (Q9QYJ6 1-794): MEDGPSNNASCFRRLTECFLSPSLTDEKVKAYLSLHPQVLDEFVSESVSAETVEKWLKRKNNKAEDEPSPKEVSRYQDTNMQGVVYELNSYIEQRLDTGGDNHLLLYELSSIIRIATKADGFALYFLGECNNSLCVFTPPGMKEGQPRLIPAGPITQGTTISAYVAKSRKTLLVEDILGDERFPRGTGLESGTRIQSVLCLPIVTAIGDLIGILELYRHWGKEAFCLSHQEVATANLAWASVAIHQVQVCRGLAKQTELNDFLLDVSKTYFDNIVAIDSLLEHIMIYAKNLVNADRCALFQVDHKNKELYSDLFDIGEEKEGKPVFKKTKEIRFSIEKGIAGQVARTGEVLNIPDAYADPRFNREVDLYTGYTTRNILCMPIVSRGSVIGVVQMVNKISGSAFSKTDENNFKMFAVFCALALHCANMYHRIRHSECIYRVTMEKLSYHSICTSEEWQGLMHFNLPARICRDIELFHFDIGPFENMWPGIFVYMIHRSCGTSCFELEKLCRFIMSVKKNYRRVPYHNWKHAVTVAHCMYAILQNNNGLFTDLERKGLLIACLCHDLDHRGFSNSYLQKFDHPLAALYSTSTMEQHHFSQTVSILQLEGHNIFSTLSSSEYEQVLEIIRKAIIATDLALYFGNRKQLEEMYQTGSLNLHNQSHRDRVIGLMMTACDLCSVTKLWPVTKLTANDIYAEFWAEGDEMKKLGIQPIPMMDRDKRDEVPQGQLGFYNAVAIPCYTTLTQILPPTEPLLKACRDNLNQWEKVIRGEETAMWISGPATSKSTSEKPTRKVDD
Experimental: Striatum from male Wistar rats (180-200 g), male hybrid pigs (150 kg) and male guinea pigs (CRL (HA), 500 g) respectively were collected and frozen at −70° C. At the day of preparation 0.5 g striatum was homogenised in 10 ml 50 mM Tris/Mg-buffer at 4° C. and centrifuged for one hour at 100000 g. The supernatant is called the cytosolic fraction and was removed and stored on ice. The pellet was resuspended in the same buffer, but containing 1% Triton and incubated for 45 min at 4° C. Both fractions were independently applied onto a 5 ml Hi Trap™ QHP column at the Äkta-FPLC. After washing the columns the bound PDE protein was eluted with an increasing sodium chloride gradient (0 mM-500 mM sodium chloride) in 50 mM Tris/Mg-buffer at 4° C. for the cytosolic fraction and in the presence of 1% Triton for the membrane fraction. […] The fractions with PDE10-activity were pooled and frozen in aliquots until use at −20° C. PDE10 activity was determined in a one step procedure in microtiter plates. […] Nonspecific activity was tested without the enzyme. The reaction was initiated by addition of the substrate solution and was carried out at 37° C. for 30 minutes. Enzymatic activity was stopped by addition of 25 μl YSi-SPA-beads (Amersham-Pharmacia). One hour later the mixture was measured in a liquid scintillation counter for microtiter plates (Microbeta Trilux). […]

[2] = biological target: PDE10 from pig striatum (Sus scrofa, UniProt A0A287B941); assay: Inhibition of PDE10 from pig striatum ([3H]-cAMP SPA, Methods A and B); format: biochemical; details: Method A, PDE10 from pig striatum; read-out: Km of substrate
Experimental: Striatum from male Wistar rats (180-200 g), male hybrid pigs (150 kg) and male guinea pigs (CRL (HA), 500 g) respectively were collected and frozen at −70° C. At the day of preparation 0.5 g striatum was homogenised in 10 ml 50 mM Tris/Mg-buffer at 4° C. and centrifuged for one hour at 100000 g. The supernatant is called the cytosolic fraction and was removed and stored on ice. The pellet was resuspended in the same buffer, but containing 1% Triton and incubated for 45 min at 4° C. Both fractions were independently applied onto a 5 ml Hi Trap™ QHP column at the Äkta-FPLC. After washing the columns the bound PDE protein was eluted with an increasing sodium chloride gradient (0 mM-500 mM sodium chloride) in 50 mM Tris/Mg-buffer at 4° C. for the cytosolic fraction and in the presence of 1% Triton for the membrane fraction. […] The fractions with PDE10-activity were pooled and frozen in aliquots until use at −20° C. PDE10 activity was determined in a one step procedure in microtiter plates. […] Nonspecific activity was tested without the enzyme. The reaction was initiated by addition of the substrate solution and was carried out at 37° C. for 30 minutes. Enzymatic activity was stopped by addition of 25 μl YSi-SPA-beads (Amersham-Pharmacia). One hour later the mixture was measured in a liquid scintillation counter for microtiter plates (Microbeta Trilux). To pipette the incubation mixture a robot Biomek (Fa. Beckman) is used. […] For determination of IC50 values the Hill-plot, 2-parameter-model, was used. […] Striatum from male hybrid pigs (150 kg) were collected and frozen at −70° C. At the day of preparation 0.5 g striatum was homogenised in 10 ml 50 mM Tris/Mg-buffer at 4° C. and centrifuged for one hour at 100000 g. The supernatant was removed and the pellet was resuspended in the same buffer, but containing 1% Triton and incubated for 45 min at 4° C. The membrane fraction was applied onto a 5 ml Hi Trap™ QHP column at the Äkta-FPLC. After washing the column the bound PDE protein was eluted with an increasing sodium chloride gradient (0 mM-500 mM sodium chloride) in 50 mM Tris/Mg-buffer at 4° C. in the presence of 1% Triton. […] The fractions with PDE10-activity were pooled and frozen in aliquots until use at −20° C. PDE10 activity was determined in a one step procedure in microtiterplates. […] Nonspecific activity was tested without the enzyme. The reaction was initiated by addition of the substrate solution and was carried out at 37° C. for 30 minutes. Enzymatic activity was stopped by addition of 25 μl YSi-SPA-beads (Amersham-Pharmacia). One hour later the mixture was measured in a liquid scintillation counter for microtiterplates (Microbeta Trilux). To pipette the incubation mixture a robot Biomek (Fa. Beckman) is used. […] For determination of IC50 values the Hill-plot, 2-parameter-model, was used.

[3] = biological target: Phosphodiesterase (PDE) 10A (Homo sapiens, UniProt Q9Y233); details: Soderling et al. 1999; read-out: Km of substrate; cited from earlier work
[4] = system: rats; details: Kostowski et al. 1976; cited from earlier work
[5] = system: rats; details: Kostowski et al. 1976; cited from earlier work; remark: listed apart in the source
[6] = system: rats; details: Kostowski et al. 1976; cited from earlier work; remark: listed apart in the source

Chain of Phosphodiesterase (PDE) 10A (Q9Y233 whole entry): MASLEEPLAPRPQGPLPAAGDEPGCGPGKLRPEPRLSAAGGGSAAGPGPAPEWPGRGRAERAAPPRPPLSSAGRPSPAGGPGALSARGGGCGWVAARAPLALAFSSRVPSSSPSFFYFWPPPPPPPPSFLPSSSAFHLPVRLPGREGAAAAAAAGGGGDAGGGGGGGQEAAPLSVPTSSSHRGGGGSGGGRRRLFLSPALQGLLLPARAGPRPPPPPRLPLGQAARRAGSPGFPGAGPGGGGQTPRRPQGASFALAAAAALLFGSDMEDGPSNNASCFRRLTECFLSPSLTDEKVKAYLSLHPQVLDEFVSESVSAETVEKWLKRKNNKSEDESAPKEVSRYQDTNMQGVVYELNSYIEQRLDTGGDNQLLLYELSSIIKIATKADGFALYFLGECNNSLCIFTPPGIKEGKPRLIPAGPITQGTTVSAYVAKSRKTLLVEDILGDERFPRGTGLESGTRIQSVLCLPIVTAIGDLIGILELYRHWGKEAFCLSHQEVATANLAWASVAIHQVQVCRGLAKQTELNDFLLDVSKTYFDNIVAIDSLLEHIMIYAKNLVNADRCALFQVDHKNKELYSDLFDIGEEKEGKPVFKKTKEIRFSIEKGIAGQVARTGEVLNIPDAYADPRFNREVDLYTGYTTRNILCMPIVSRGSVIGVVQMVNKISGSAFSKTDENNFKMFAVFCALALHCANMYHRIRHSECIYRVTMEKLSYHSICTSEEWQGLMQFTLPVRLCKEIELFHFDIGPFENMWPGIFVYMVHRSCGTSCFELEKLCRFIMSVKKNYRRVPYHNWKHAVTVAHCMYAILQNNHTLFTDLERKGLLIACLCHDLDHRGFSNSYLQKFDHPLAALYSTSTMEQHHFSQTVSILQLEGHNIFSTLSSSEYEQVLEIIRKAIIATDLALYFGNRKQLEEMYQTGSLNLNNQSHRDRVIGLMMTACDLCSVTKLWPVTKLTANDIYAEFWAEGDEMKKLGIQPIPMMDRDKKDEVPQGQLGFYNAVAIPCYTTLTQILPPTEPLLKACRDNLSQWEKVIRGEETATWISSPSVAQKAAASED

| Km [1] | Km [2] | SMILES | Km [3] | haloperidol-induced catalepsy [4] | apomorphine-induced stereotypies [5] | dopamine concentration in rat brain [6] |
| --- | --- | --- | --- | --- | --- | --- |
| 1.8 µM | 2.2 µM | Nc1nc2c(ncn2[C@@H]2O[C@@H]3COP(=O)(O)O[C@H]3[C@H]2O)c(=O)[nH]1 [cGMP] | 3 µM | – | – | – |
| – | – | COc1ccc(Cc2nccc3cc(OC)c(OC)cc23)cc1OC [Papaverine] | – | increases | reduces | reducing |
